Data published in BindingDB's records for patent US11739093 (Revolution Medicines, 2023).

Target: T1, Tyrosine-protein phosphatase non-receptor type 11 (Homo sapiens, UniProt Q06124)
T1 sequence (Q06124 whole entry): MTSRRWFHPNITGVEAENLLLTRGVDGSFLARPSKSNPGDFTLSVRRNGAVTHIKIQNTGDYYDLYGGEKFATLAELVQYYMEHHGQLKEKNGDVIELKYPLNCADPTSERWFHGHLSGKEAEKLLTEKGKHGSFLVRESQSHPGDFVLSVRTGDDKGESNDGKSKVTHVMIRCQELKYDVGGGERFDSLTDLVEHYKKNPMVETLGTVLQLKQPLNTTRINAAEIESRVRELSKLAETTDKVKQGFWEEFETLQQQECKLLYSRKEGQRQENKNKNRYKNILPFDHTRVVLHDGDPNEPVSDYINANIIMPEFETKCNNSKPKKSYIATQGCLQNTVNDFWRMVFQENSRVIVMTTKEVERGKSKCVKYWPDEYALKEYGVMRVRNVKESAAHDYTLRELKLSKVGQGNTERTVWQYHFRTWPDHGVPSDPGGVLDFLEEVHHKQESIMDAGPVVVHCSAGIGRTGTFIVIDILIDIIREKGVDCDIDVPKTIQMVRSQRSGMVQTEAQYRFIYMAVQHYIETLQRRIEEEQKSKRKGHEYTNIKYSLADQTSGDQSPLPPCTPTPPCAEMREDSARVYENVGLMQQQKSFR
Test: SHP2 Allosteric Inhibition Assay
Description: The phosphatase reactions were performed at room temperature in 96-well black polystyrene plate, flat bottom, non-binding surface (Corning, Cat #3650) using a final reaction volume of 100 μL and the following assay buffer conditions: 50 mM HEPES, pH 7.2, 100 mM NaCl, 0.5 mM EDTA, 0.05% P-20, 1 mM DTT. The inhibition of SHP2 by compounds of the disclosure (concentrations varying from 0.00005-10 μM) was monitored using an assay in which 0.2 nM of SHP2 was incubated with 0.5 μM of Activating Peptide 1 (sequence: H2 N-LN(pY)IDLDLV(dPEG8)LST(pY)ASINFQK-amide) or Activating Peptide 2 (sequence: H2 N-LN(pY)AQLWHA(dPEG8)LTI(pY)ATIRRF-amide). After 30-60- minutes incubation at 25° C., the surrogate substrate DiFMUP (Invitrogen, Cat #D6567) was added to the reaction and activity was determined by a kinetic read using a microplate reader (Envision, Perkin-Elmer or Spectramax M5, Molecular Devices). The excitation and emission wavelengths were 340 nm and 450 nm, respectively. Initial rates were determined from a linear fit of the data, and the inhibitor dose response curves were analyzed using normalized IC50 regression curve fitting with control-based normalization.

- IC50: 34 nM
SMILES: Cc1nc(N2CCC3(CC2)CO[C@@H](C)[C@H]3N)c2ccnn2c1Sc1ccnc(N)c1Cl [US11739093, Compound 3]
